Measurements as given in patent publication US20210130826A1, “METHODS OF MODULATING ANTISENSE ACTIVITY” (IONIS PHARMACEUTICALS, INC., priority 2018, published 2021).

Assays:
Atg7 = Atg7 mRNA in mouse liver by RT-qPCR; format: in vivo; conditions: Table 35; mouse liver 24 h; oligonucleotide 5 mg/kg; rapamycin 5 mg/kg at 0, 12, 22 h
Method: The following experiments were performed to determine if the effects of autophagy modulators on antisense activity in vitro can be observed in vivo. […] Mice were sacrificed at 24 hours after administration of the modified oligonucleotide and tissues were collected for analysis. […] Atg7 mRNA levels are a marker of the induction of autophagy in treated mouse livers. Results are presented as percent change of RNA, relative to PBS control treated with DMSO, normalized to mouse cyclophilin A measured using mouse primer probe set Cyclophilin-A (forward sequence [NT], designated herein as SEQ ID NO: 38; reverse sequence [NT], designated herein as SEQ ID NO: 39; probe sequence [NT], designated herein as SEQ ID NO: 40). […] Following administration of modified oligonucleotide, groups of mice were either allowed free access to chow (control) or fasted overnight (16 hr fast). Mice were sacrificed at 16 hours after administration of the modified oligonucleotide and tissues were collected for analysis. […] Atg7 mRNA levels are a marker of the induction of autophagy in treated mouse livers. Results are presented in Table 33 relative to mice treated with PBS and allowed normal access to chow. […] Mice were sacrificed at 24 hours after administration of the modified oligonucleotide and tissues were collected for analysis. […]

Malat-1 [1] = assay: MALAT-1 RNA in mouse liver by RT-qPCR; format: in vivo; conditions: Table 35; mouse liver 24 h; oligonucleotide 5 mg/kg; rapamycin 5 mg/kg at 0, 12, 22 h
Method: The following experiments were performed to determine if the effects of autophagy modulators on antisense activity in vitro can be observed in vivo. […] Mice were sacrificed at 24 hours after administration of the modified oligonucleotide and tissues were collected for analysis. […] Atg7 mRNA levels are a marker of the induction of autophagy in treated mouse livers. Results are presented as percent change of RNA, relative to PBS control treated with DMSO, normalized to mouse cyclophilin A measured using mouse primer probe set Cyclophilin-A (forward sequence [NT], designated herein as SEQ ID NO: 38; reverse sequence [NT], designated herein as SEQ ID NO: 39; probe sequence [NT], designated herein as SEQ ID NO: 40). […] Following administration of modified oligonucleotide, groups of mice were either allowed free access to chow (control) or fasted overnight (16 hr fast). Mice were sacrificed at 16 hours after administration of the modified oligonucleotide and tissues were collected for analysis. […] Atg7 mRNA levels are a marker of the induction of autophagy in treated mouse livers. Results are presented in Table 33 relative to mice treated with PBS and allowed normal access to chow. […] Mice were sacrificed at 24 hours after administration of the modified oligonucleotide and tissues were collected for analysis. […] Atg7 mRNA levels are a marker of the induction of autophagy in treated mouse livers. […] RNA was extracted from liver tissue for real-time RTPCR analysis of MALAT1 RNA expression. Primer probe set 15877 was used to measure mouse MALAT1 RNA levels. Results are presented as percent change of RNA, relative to PBS control, normalized to mouse cyclophilin A measured using mouse primer probe set Cyclophilin-A. […] RNA was extracted from liver tissue for real-time RTPCR analysis of MALAT1 RNA expression. Primer probe set 15877 was used to measure mouse MALAT1 RNA levels. Results are presented as percent change of RNA, relative to PBS control, normalized to mouse cyclophilin A measured using mouse primer probe set Cyclophilin-A.

[2] = system: mTOR kinase activity (pS6/S6 levels); assay: Liver protein analysis in mice: pS6/S6; format: in vivo; conditions: Table 34; mouse liver 24 h; oligonucleotide 5 mg/kg (or PBS); Treatment Rapamycin 5 mg/kg at 0, 12, 22 h
Method: The following experiments were performed to determine if the effects of autophagy modulators on antisense activity in vitro can be observed in vivo. […] Following administration of modified oligonucleotide, mice were administered 1% DMSO or 5 mg/kg AZD8055 in 1% DMSO at three time points over 24 hours: at the time of administration of the modified oligonucleotide, and 12 and 22 hours after administration of the modified oligonucleotide. A group of control mice was administered PBS at time 0 and 1% DMSO at 0, 12, and 22 hours. Mice were sacrificed at 24 hours after administration of the modified oligonucleotide and tissues were collected for analysis.
Protein analysis was carried out on liver tissue using standard procedures. All proteins were normalized to α-tubulin. […] The antibody against LC3B (ab48394) was purchased from Abcam. […] Antibody against P62 (GP62-C) was purchased from Progen.
A group of control mice was administered PBS at time 0 and 1% DMSO at 0, 12, and 22 hours. Mice were sacrificed at 24 hours after administration of the modified oligonucleotide and tissues were collected for analysis. […]

p62 = assay: Liver protein analysis in mice: p62; format: in vivo; conditions: Table 34; mouse liver 24 h; oligonucleotide 5 mg/kg (or PBS); Treatment Rapamycin 5 mg/kg at 0, 12, 22 h
Method: (§1) The following experiments were performed to determine if the effects of autophagy modulators on antisense activity in vitro can be observed in vivo. Groups of 3-4 8-week-old male C57bl/6J mice were administered 5 mg/kg control oligonucleotide 141923, or 5 mg/kg antisense oligonucleotide 399462. Following administration of modified oligonucleotide, mice were administered 1% DMSO or 5 mg/kg AZD8055 in 1% DMSO at three time points over 24 hours: at the time of administration of the modified oligonucleotide, and 12 and 22 hours after administration of the modified oligonucleotide. A group of control mice was administered PBS at time 0 and 1% DMSO at 0, 12, and 22 hours. Mice were sacrificed at 24 hours after administration of the modified oligonucleotide and tissues were collected for analysis.
(§2) Autophagy activation was confirmed in livers by determining suppression of mTOR kinase activity (pS6/S6 levels), determining an increased LC3B II/I ratio (a marker for the formation of autophagosomes), and determining p62 degradation (related to the clearance of autophagosomes). Protein analysis was carried out on liver tissue using standard procedures. All proteins were normalized to α-tubulin. Phospho-S6 Ribosomal Protein (Ser240/244) (2215S), and S6 Ribosomal Protein (2217S) antibodies were obtained from Cell Signaling Technology. The antibody against LC3B (ab48394) was purchased from Abcam. […]

LC3B = assay: Liver protein analysis in mice: LC3B II/I ratio; format: in vivo; conditions: Table 34; mouse liver 24 h; oligonucleotide 5 mg/kg (or PBS); Treatment Rapamycin 5 mg/kg at 0, 12, 22 h
Method: as §1, §2

Malat-1 [3] = assay: Malat-1 RNA by RT-qPCR in MHT cells; autophagy modulator, then oligonucleotide by free uptake; format: cell-based, mouse; conditions: for effect of autophagy modulator on modified oligonucleotide activity (in words): MOE gapmer 399462, relative to DMSO; for effect of autophagy modulator on antisense activity (in words): cEt gapmer 556089, relative to DMSO
Method: MHT cells (a mouse hepatocellular carcinoma cell line) were plated at 20,000 cells/well and treated with DMSO (control) or an autophagy modulator for 24 hours at the concentrations indicated in Table 2 below. 3-MA, BafA1, AZD8055, and leupeptin are […]. […] Fourteen hours after the addition of autophagy modulators, 10 μM of a modified control oligonucleotide or of a modified antisense oligonucleotide was added by free uptake for ten hours. The modified oligonucleotides, shown in Table 1 below, are 3-10-3 cEt gapmers in which every internucleoside linkage is a phosphorothioate internucleoside linkage. The three 5′-terminal nucleosides and the three 3′-terminal nucleosides of each oligonucleotide each comprise a cEt modified sugar moiety. The remaining ten nucleosides of each oligonucleotide each comprise an unmodified, 2′-deoxy sugar moiety.
Using the primer probe sets described in Table 3 below, RT-qPCR analysis was performed to detect RNA levels of Malat-1, shown in Table 4 and markers of autophagy, (Rab7, LAMP2, Atg7, ULK1, ULK2, Atg5, Beclin, and c-Jun), shown in Table 5. Results were normalized to cyclophilin A levels. To control for global effects of autophagy modulators on gene expression, Malat-1 RNA levels after treatment with an antisense oligonucleotide and an autophagy modulator were normalized to Malat-1 RNA levels in cells treated with control Compound No. 549148 and the same autophagy modulator.
MHT cells were plated at 20,000 cells/well and treated with DMSO (control) or an autophagy modulator for 24 hours, at the concentrations indicated Table 7 below. Fourteen hours after the addition of autophagy modulator, control or antisense oligonucleotides (see Table 6) were added at 1 μM, 2.5 μM, 5 μM, or 10 μM by free uptake for ten hours. The modified oligonucleotides, shown in Table 6 below, are 5-10-5 MOE gapmers in which every internucleoside linkage is a phosphorothioate internucleoside linkage. The five 5′-terminal nucleosides and the five 3′-terminal nucleosides of each oligonucleotide each comprise a 2′-MOE modified sugar moiety. The remaining ten nucleosides of each oligonucleotide each comprise an unmodified, 2′-deoxy sugar moiety.
RT-qPCR analysis was performed to detect RNA levels of Malat-1 using primer probe set 15877 (described in Example 1). In order to control for global effects of autophagy modulators on gene expression, Malat-1 RNA levels after treatment with an antisense oligonucleotide and an autophagy modulator were normalized to Malat-1 RNA levels in cells treated with control Compound No. 141923 and the same autophagy modulator. Each table below represents results from an individual assay.

Malat-1 [4] = assay: Malat-1 RNA by RT-qPCR in A431 cells; format: cell-based, human; conditions: MOE gapmer
Method: RT-qPCR analysis was performed to detect RNA levels of Malat-1 using primer probe set RTS2736. Results were normalized to cyclophilin A levels (measured using HTS3936). […] Each table below represents results from an individual assay.

SMILES | effect of autophagy modulator on modified oligonucleotide activity (in words) (Malat-1 [3]) | effect of autophagy modulator on antisense activity (in words) (Malat-1 [3]) | effect of autophagy modulator on modified oligonucleotide activity (in words) (Malat-1 [4]) | also measured
CO[C@H]1C[C@@H]2CC[C@@H](C)[C@@](O)(O2)C(=O)C(=O)N2CCCC[C@H]2C(=O)O[C@H]([C@H](C)C[C@@H]2CC[C@@H](O)[C@H](OC)C2)CC(=O)[C@H](C)/C=C(\C)[C@@H](O)[C@@H](OC)C(=O)[C@H](C)C[C@H](C)/C=C/C=C/C=C/1C [Rapamycin] |  |  |  | Atg7 level (% relative to PBS/DMSO mice) (Atg7): 111%; Malat-1 level (% relative to PBS/DMSO mice) (Malat-1 [1]): 89%; pS6/S6 ratio [2]: 0.7; P62 (p62): 0.8; LC3B II/I ratio (LC3B): 1.3
CC[C@]1(O)C[C@@H]2CN(CCc3c([nH]c4ccccc34)[C@@](C(=O)OC)(c3cc4c(cc3OC)N(C)[C@H]3[C@@](O)(C(=O)OC)[C@H](OC(C)=O)[C@]5(CC)C=CCN6CC[C@]43[C@@H]65)C2)C1 [Vinblastine] | significantly enhanced modified oligonucleotide activity |  |  | 
CO/C1=C\C(C)=C\[C@@H](C)[C@@H](O)[C@@H](C)C/C(C)=C/C=C/[C@H](OC)[C@@H]([C@@H](C)[C@@H](O)[C@H](C)[C@@]2(O)C[C@@H](O)[C@H](C)[C@@H](C(C)C)O2)OC1=O [BafA1, Bafilomycin A1] | significantly enhanced modified oligonucleotide activity | significantly enhanced antisense activity | significantly enhanced modified oligonucleotide activity | 
CCOC(=O)[C@H]1O[C@@H]1C(=O)N[C@@H](CC(C)C)C(=O)NCCC(C)C [E64D] | reduced activity of modified oligonucleotide |  |  | 
Cn1cnc(N)c2ncnc1-2 [3-MA, 3-methyladenine] | significantly enhanced modified oligonucleotide activity | significantly enhanced antisense activity |  | 
CC(=O)N[C@@H](CC(C)C)C(=O)N[C@@H](CC(C)C)C(=O)N[C@H](C=O)CCCNC(=N)N [Leupeptin] | significantly enhanced modified oligonucleotide activity | significantly enhanced antisense activity | significantly enhanced modified oligonucleotide activity | 
CC(C)C(=O)CN1c2nc(N3CCOC[C@H]3C)cc(=O)n2CC[C@H]1C(F)(F)F [VPS34-IN2] | significantly enhanced modified oligonucleotide activity |  | significantly enhanced modified oligonucleotide activity | 
